Data as given in US12419869B2, “Methods of treating multiple sclerosis” (Vanda Pharmaceuticals Inc., priority 2021, dated 2025).

Tests used:
[1] = tested on: adult subjects with relapsing MS; assay: Fatigue-related symptoms, FSIQ-RMS weekly symptoms score, change from baseline to Week 108; assay type: in vivo, human
Description: (§1) In some embodiments, the patient-reported outcome questionnaire is the symptom domain of the FSIQ-RMS. The FSIQ-RMS symptom domain (FSIQ-RMS-S) consists of seven items assessing fatigue-related symptoms with a recall period of 24 hours measured on an 11-point numeric rating scale; the standardized symptom domain score ranges from 0 to 100 with a higher score indicating greater fatigue. This domain (i.e., section 1 of the questionnaire) is completed on 7 consecutive days.
The patient-reported outcome questionnaire used for the below Examples is the Fatigue Symptoms and Impact Questionnaire—Relapsing Multiple Sclerosis (FSIQ-RMS). The FSIQ-RMS is an MS specific 20-item PRO measure that comprises 2 domains: one measuring MS symptoms (7 items) and one measuring MS-related impacts (13 items). The 7 symptom items and 13 impact items (in 3 impacts subdomains: physical, cognitive and emotional, and coping) are presented below.
For the MS symptoms domain, the FSIQ-RMS asks about a patient's fatigue-related symptoms of relapsing MS over the past 24 hours while doing routine daily activities (e.g., housework, yard work, shopping, working, etc.) for Items 1-6 or while at rest (e.g., reading a book, watching TV, etc.) for Item 7. Patients are asked to select a response on a scale of 0 to 10 that best describes their experience and are asked to not skip any questions, with no answers being right or wrong.
Secondary efficacy variables and testing strategy: Four secondary efficacy endpoints were analyzed as per the statistical testing strategy outlined in FIG. 1. • Change from baseline to Week 108 in fatigue-related symptoms as measured by the symptoms domain of the FSIQ-RMS patient-reported outcome [Fatigue] • Cumulative number of combined unique active lesions from baseline to Week 108 on brain MRI [CUALs] • Time to first 12-week confirmed disability accumulation (CDA) from baseline to EOS on Expanded Disability Status Scale (EDSS) [12-week CDA] • Time to first 24-week CDA from baseline to EOS on EDSS [24-week CDA]
as §1, with “The” for “In some embodiments, the patient-reported outcome questionnaire is the symptom domain of the FSIQ-RMS. The”
FSIQ-RMS was completed during the pre-randomization period, at Visits 6, 7, 10, and 12 (Weeks 12, 24, 60, 84), 14 (EOT), and at unscheduled visits due to relapses (R1, R2, etc.) or other unscheduled visits (U1, U2, etc.) as described below. If applicable, FSIQ-RMS was performed at the corresponding visits in the PTOP.
After randomization, the symptoms domain of the FSIQ-RMS (i.e., section 1 of the questionnaire) was completed by the subject at home on a daily basis, starting in the evening of the day of a visit when the FSIQ-RMS was administered (Day 1 of questionnaire administration cycle) and during the 6 subsequent days (i.e., over 7 days in total). Subjects returned the completed FSIQ-RMS diary at the next scheduled visit. On the seventh day, the subject completed the impact domain of the FSIQ-RMS (i.e., section 2 of the questionnaire). If applicable, at the end of the PTOP, the FSIQ-RMS was completed prior to Visit 14A (Week 108), ideally, during the 7 consecutive days preceding the visit.

clinical = details: human, in vivo
Description: Steady-state levels are approximately 2.0 to 2.6-fold greater than with a single dose, and are achieved following 3 days of administration of the maintenance dose of ponesimod.
The pharmacokinetics of ponesimod are similar in healthy subjects and patients with multiple sclerosis, with 25% inter-subject variability across studies.
The time to reach maximum plasma concentration of ponesimod is 2-4 hours post-dose.
Following IV administration in healthy subjects, the steady-state volume of distribution of ponesimod is 160 L.

[2] = Excretion after single oral administration of 14C-ponesimod; assay type: in vivo, human; details: single oral 14C-ponesimod
Text: Following a single oral administration of ^14C-ponesimod, 57% to 80% of the dose was recovered in feces (16% as unchanged ponesimod), and 10% to 18% in urine (no unchanged ponesimod).

[3] = Pharmacokinetics in hepatic impairment (Child-Pugh class A, B, C); assay type: in vivo, human
[4] = tested on: P-gp, BCRP, OATP1B1, or OATP1B3 transporters; assay: Transporter substrate assessment; assay type: in vitro ADME
Text: Drugs that are inhibitors of these transporters are unlikely to impact the PK of ponesimod.

Solubility in water = assay type: physicochemical
female rats = assay: Pre- and postnatal development study in female rats, oral; assay type: in vivo, rat
Text: There are no data on the presence of PONVORY in human milk, the effects on the breastfed infant, or the effects of the drug on milk production.

male and female rats = assay: Fertility studies in male and female rats, oral; assay type: in vivo, rat
Description: Plasma ponesimod exposures (AUC) at the highest dose tested were approximately 10 (males) and 30 (females) times that in humans at the recommended human dose (RHD) of 20 mg/day.

CYP3A4 and UGT1A1 = assay: In vitro assessments and limited clinical data, strong CYP3A4 and UGT1A1 inducers; details: e.g., rifampin, phenytoin, carbamazepine
Text: It is unclear whether this decrease in ponesimod systemic exposure would be considered of clinical relevance. Coadministration of PONVORY with strong CYP3A4 and UGT1A1 inducers is not recommended.

[5] = Week 108, baseline EDSS <3.5 (title: ≤3.5)
[6] = Week 108, baseline fatigue below the median
[7] = Week 108, no Gd+ T1 lesions at baseline
[8] = Week 108, no prior DMT treatment

SMILES: CCC/N=C1\S/C(=C\c2ccc(OC[C@H](O)CO)c(Cl)c2)C(=O)N1c1ccccc1C [Ponesimod, (R)-5-[3-chloro-4-(2,3-dihydroxy-propoxy)-benz[Z]ylidene]-2-([Z]-propylimino)-3-o-tolyl-thiazolidin-4-one]
- FSIQ-RMS change from baseline to Week 108, mean difference ponesimod vs teriflunomide ([1]; Full Analysis Set): −3.57
- Change from baseline to Week 108 in FSIQ-RMS weekly symptoms score (mean, MMRM) ([1]; Full Analysis Set, increase = worsening): −0.01
- Change in FSIQ-RMS-S total score: Improved (<−6.3), patients ([1]; Week 108, Full Analysis Set): 30.5%
- Change in FSIQ-RMS-S total score: Stable (−6.3 < × < +6.3), patients ([1]; Week 108, Full Analysis Set): 38.4%
- Change in FSIQ-RMS-S total score: Stable or Improved, patients ([1]; Week 108, Full Analysis Set): 68.9%
- Change in FSIQ-RMS-S total score: Worsened (≥6.3), patients ([1]; Week 108, Full Analysis Set): 31.1%
- FSIQ-RMS change: Improved (<−6.3), patients [1, 5]: 30.6%
- FSIQ-RMS change: Stable (−6.3 < × < +6.3), patients [1, 5]: 40.8%
- FSIQ-RMS change: Stable or Improved, patients [1, 5]: 71.4%
- FSIQ-RMS change: Worsened (≥6.3), patients [1, 5]: 28.6%
- FSIQ-RMS change: Improved (<−6.3), patients [1, 6]: 19.1%
- FSIQ-RMS change: Stable (−6.3 < × < +6.3), patients [1, 6]: 45.2%
- FSIQ-RMS change: Stable or Improved, patients [1, 6]: 64.4%
- FSIQ-RMS change: Worsened (≥6.3), patients [1, 6]: 35.6%
- FSIQ-RMS change: Stable (−6.3 < × < +6.3), patients [1, 7]: 37.4%
- FSIQ-RMS change: Stable or Improved, patients [1, 7]: 67.5%
- FSIQ-RMS change: Worsened (≥6.3), patients [1, 7]: 32.5%
- FSIQ-RMS change: Improved (<−6.3), patients [1, 8]: 31.4%
- FSIQ-RMS change: Stable (−6.3 < × < +6.3), patients [1, 8]: 44.0%
- FSIQ-RMS change: Stable or Improved, patients [1, 8]: 75.4%
- FSIQ-RMS change: Worsened (≥6.3), patients [1, 8]: 24.6%
- FSIQ-RMS change: Improved (<−6.3), patients ([1]; Week 108, no prior DMT treatment, listed as ponesimod): 31.4%
- Effect of food on pharmacokinetics (clinical): does not have a clinically relevant effect
- Influence of age (range: 17 to 65 years) on PK (clinical): not identified to significantly influence
- Influence of gender on pharmacokinetics (clinical): no clinically significant influence
- Inter-subject variability of pharmacokinetics across studies (clinical): 25%
- Pharmacokinetic differences between Japanese and Caucasian subjects (clinical): No clinically relevant pharmacokinetic differences
- Time to steady state on maintenance dose (clinical): 3 days
- clearance (clinical; iv): 63.3 mL/min
- Increase of Cmax and AUC with dose (clinical; po): approximately dose-proportionally
- Steady-state levels relative to a single dose (clinical; po): 2.0-2.6 fold
- Time to reach maximum plasma concentration (clinical; po): 2 to 4 h
- half-life (clinical; po): ~33 h
- bioavailability (clinical; po, 10 mg): 84%
- Dose recovered in feces as unchanged ponesimod [2]: 16%
- Increase of AUC0-∞ vs healthy subjects ([3]; mild hepatic impairment (Child-Pugh A)): 1.3 fold
- Change in Cmax vs healthy subjects ([3]; mild, moderate, or severe hepatic impairment): no change
- Increase of AUC0-∞ vs healthy subjects ([3]; moderate hepatic impairment (Child-Pugh B)): 2.0 fold
- Increase of AUC0-∞ vs healthy subjects ([3]; severe hepatic impairment (Child-Pugh C)): 3.1 fold
- Substrate of P-gp, BCRP, OATP1B1, or OATP1B3 transporters [4]: not a substrate
- Solubility in water (Solubility in water): practically insoluble or insoluble in water
- No-effect dose for adverse effects on pre- and postnatal development in rats (female rats; 5, 10, or 20 mg/kg oral): not identified
- Plasma exposure (AUC) in dams at lowest dose tested vs humans at RHD (female rats; rat, in vivo): less than that in humans
- Presence in offspring after dosing of female rats during pregnancy and lactation (female rats; suggesting excretion in milk): detected in the plasma of the offspring
- Effects on fertility in rats (male and female rats; 0, 10, 30, or 100 mg/kg/day oral): no effects on fertility
- Plasma exposure (AUC) at highest dose relative to humans at RHD, females (male and female rats; 100 mg/kg/day): ~30 times
- Plasma exposure (AUC) at highest dose relative to humans at RHD, males (male and female rats; 100 mg/kg/day): approximately 10 times
- Effect of strong CYP3A4 and UGT1A1 inducers on systemic exposure (CYP3A4 and UGT1A1): may decrease the systemic exposure
